Where two headings read alike, the source gives them in different places.
How the values were obtained:
rat mGlu2 receptor = rat mGlu2 receptor (Rattus norvegicus (Rat), UniProt P31421); assay: mGlu2 in vitro GIRK thallium flux assay; type: cell-based; details: NAM, EC80 glutamate, HEK-293 GIRK cells
Summary of the method: (§1)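 Cells expressing rat mGlu2 or mGlu3 with GIRK, plated overnight at 37 °C. Test compounds (0.3% DMSO, 10-point 1:3 series) preincubated 2.5 or 60 min, then thallium buffer plus EC80 glutamate added. Fluorescence slope 5–15 s after addition, normalised to vehicle and maximal agonist, fitted by four-parameter logistic.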

rat mGlu3 receptor = rat mGlu3 receptor (Rattus norvegicus (Rat), UniProt P31422); assay: mGlu3 in vitro GIRK thallium flux assay; type: cell-based; details: NAM; 2.5 min compound incubation; EC80 glutamate; HEK-293 GIRK cells
Chain of rat mGlu3 receptor (P31422 23-879): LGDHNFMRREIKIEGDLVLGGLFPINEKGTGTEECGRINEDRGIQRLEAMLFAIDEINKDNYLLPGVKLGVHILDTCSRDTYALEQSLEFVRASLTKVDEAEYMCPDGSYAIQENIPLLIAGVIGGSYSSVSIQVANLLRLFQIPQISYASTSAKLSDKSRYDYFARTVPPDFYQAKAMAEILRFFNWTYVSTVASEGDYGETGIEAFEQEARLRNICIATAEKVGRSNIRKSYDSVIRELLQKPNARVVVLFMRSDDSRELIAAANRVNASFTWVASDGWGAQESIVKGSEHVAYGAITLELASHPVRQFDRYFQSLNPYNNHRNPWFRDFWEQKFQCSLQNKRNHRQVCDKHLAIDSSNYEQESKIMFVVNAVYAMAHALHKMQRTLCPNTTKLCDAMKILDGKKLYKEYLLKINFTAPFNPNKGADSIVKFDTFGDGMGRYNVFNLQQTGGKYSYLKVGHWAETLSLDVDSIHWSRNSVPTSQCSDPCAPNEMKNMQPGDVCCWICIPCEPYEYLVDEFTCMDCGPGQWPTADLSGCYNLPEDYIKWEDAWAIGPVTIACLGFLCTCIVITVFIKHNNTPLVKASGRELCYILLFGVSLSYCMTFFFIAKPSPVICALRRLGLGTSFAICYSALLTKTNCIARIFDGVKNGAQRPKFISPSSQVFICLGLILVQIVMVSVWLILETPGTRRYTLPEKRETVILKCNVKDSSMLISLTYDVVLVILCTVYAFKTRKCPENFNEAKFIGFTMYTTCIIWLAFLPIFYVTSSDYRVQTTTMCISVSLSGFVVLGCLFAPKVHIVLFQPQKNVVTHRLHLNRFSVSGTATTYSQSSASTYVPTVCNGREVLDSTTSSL
Summary of the method: as §1

[1] = Microsomal stability in vitro assay; type: in vitro ADME; details: rat liver microsomes 1 mg/mL, 4 μM compound, 2 mM NADPH
Procedure: Pooled rat liver microsomes (BD Biosciences, #452701) were preincubated with test compounds at 37.5° C. for 5 min in the absence of NADPH. The reaction was initiated by addition of NADPH and incubated under the same conditions. The final incubation concentrations were 4 μM test compound, 2 mM NADPH, and 1 mg/mL (total protein) liver microsomes in phosphate-buffered saline (PBS) at pH 7.4. One aliquot (100 μL) of the incubation mixture was withdrawn at 15 min time points and combined immediately with 100 μL of ACN/MeOH. After mixing, the sample was centrifuged at approximately 13000 rpm for 12 min. The supernatant was filtered and transferred into an autosampler vial and the amount of test compound was quantified using a Shimadzu LCMS 2010EV mass spectrometer. The change of the AUC (area under the curve) of the parent compound as a function of time was used as a measure of microsomal stability. Test compounds were run in duplicate with a positive control.

[2] = Plasma stability in vitro assay; type: in vitro ADME; details: rat plasma, 100 μM, 37.5° C.
Procedure: A 20 μL aliquot of a 10 mM solution in DMSO of the test compound was added to 2.0 mL of heparinized rat plasma (Lampire, P1-150N) to obtain a 100 μM final solution. The mixture was incubated for 1 h at 37.5° C. Aliquots of 100 μL were taken at 15 min intervals and diluted with 100 μL of MeOH/ACN. After mixing, the sample was centrifuged at approximately 13000 rpm for 12 min. The supernatant was filtered and transferred into an autosampler vial and the amount of test compound was quantified using the Shimadzu LCMS-2010EV system. The change of the AUC of the parent compound in function of time was used as a measure of plasma stability.

[3] = PK: brain and plasma levels collected after the FST; type: in vivo, rat; details: Wistar
Procedure: After the habituation swim and 24 hours prior to the test swim, rats were administered one of three doses of a mGlu2/3 NAM, with doses and pretreatment time based on maximal brain penetration as determined by PK studies for each compound. Blood and brain tissue were collected immediately after the FST and the PK properties of each compound were analyzed together with FST behavior. The modified forced swim test was carried out as described previously in Cryan et al., 2003. Briefly, rats were taken from the vivarium and immediately placed individually for 15 min in Pyrex cylinders (21×46 cm; Fisher Scientific, Tustin, Calif.), which were filled with water to a depth of 30 cm. The testing room was bright, and two bright (60-watt) lamps provided extra illumination above the cylinders. The rats were removed 15 min later, dried, and placed in their home cage. Twenty-four hours after their first exposure, the animals were again placed in the swim apparatus for 5 min, and behaviors were monitored from above by video camera for subsequent analysis. The rater of the behavioral patterns was blind with respect to the experimental conditions being scored. A time sampling technique was employed whereby the predominant behavior in each 5-sec period of the 300-sec test was recorded. Climbing behavior consisted of upward-directed movements of the forepaws along the side of the swim chamber. Swimming behavior was defined as movement (usually horizontal) throughout the swim chamber, which also included crossing into another quadrant. Immobility was assigned when no additional activity was observed other than that required to keep the rat's head above water.

Male Wistar rats = assay: Forced Swim Test (FST); type: in vivo; details: rat; immobility and swimming; FIG. 1
Procedure: Male Wistar rats (Charles River, Hollister, Calif.), weighing 175-225 g (Charles River, Portage, Ind.) used for the forced swim test study were housed in pairs with food and water available ad libitum, except during testing, in a temperature and humidity controlled vivarium (21° C.). Rats were maintained on a 12-hour reverse light-dark cycle with lights on at 6 pm. All experimental procedures occurred during the dark cycle, were approved by the Institutional Animal Care and Use Committee of the Scripps Research Institute, and were in accordance with the Association for the Assessment and Accreditation of Laboratory Animal Care (AAALAC) guidelines. […]
After the habituation swim and 24 hours prior to the test swim, rats were administered one of three doses of a mGlu2/3 NAM, with doses and pretreatment time based on maximal brain penetration as determined by PK studies for each compound. Blood and brain tissue were collected immediately after the FST and the PK properties of each compound were analyzed together with FST behavior. […] Twenty-four hours after their first exposure, the animals were again placed in the swim apparatus for 5 min, and behaviors were monitored from above by video camera for subsequent analysis. The rater of the behavioral patterns was blind with respect to the experimental conditions being scored. […]

R6/2 mice = details: 20 mg/kg daily subcutaneous injection beginning at 4 weeks; cited from earlier work
[4] = tested on: cultured spinal cord astrocytes; details: astrocytes from wild-type and mGlu2 knockout mice, not mGlu3 knockout mice; cited from earlier work
SMI-32+ motor neurons = details: abrogated by anti-GDNF antibodies; cited from earlier work
SOD1G93A mice = details: continuous treatment with 1 or 5 mg/kg/day; cited from earlier work
reserpine-treated rat = details: cited from earlier work
[5] = 2.5 min compound incubation, read-out: mGlu2 EC50 (μM) (2.5 min)
[6] = mGlu2 EC50 (μM) (60 min), 60 min compound incubation
[7] = rat brain tissue, read-out: Brain
[8] = read-out: mGlu2 EC50 (μM) (60 min), 60 min compound incubation

Chain of rat mGlu2 receptor (P31421 19-872): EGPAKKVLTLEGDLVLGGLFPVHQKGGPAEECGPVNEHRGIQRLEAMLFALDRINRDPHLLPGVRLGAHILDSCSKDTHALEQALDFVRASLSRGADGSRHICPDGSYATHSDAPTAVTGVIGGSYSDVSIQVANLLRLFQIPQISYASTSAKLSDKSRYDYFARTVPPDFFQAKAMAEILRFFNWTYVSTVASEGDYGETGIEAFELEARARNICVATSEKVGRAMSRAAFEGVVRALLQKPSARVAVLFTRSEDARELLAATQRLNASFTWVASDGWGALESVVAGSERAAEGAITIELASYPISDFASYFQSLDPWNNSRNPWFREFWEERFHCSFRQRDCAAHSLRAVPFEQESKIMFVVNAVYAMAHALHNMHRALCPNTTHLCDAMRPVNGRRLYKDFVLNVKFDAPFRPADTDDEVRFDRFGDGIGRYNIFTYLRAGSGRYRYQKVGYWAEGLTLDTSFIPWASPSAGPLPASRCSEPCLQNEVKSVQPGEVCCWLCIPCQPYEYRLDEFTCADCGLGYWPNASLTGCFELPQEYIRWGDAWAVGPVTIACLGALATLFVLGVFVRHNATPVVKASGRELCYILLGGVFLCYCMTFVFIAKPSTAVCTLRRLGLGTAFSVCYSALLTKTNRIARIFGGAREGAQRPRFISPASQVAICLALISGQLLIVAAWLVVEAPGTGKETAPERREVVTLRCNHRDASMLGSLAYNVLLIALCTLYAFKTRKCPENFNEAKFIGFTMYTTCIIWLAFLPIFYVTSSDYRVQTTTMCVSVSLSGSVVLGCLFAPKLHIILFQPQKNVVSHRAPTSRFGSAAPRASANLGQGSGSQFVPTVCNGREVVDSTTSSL

EC50 (rat mGlu2 receptor; [6]) [µM] | Microsomal Stability, Percent Remaining @ 1 hour [1] [%] | Plasma Stability, Percent Remaining @ 1 hour [2] [%] | SMILES | EC50 (rat mGlu2 receptor; [5]) [µM] | EC50 (rat mGlu3 receptor) [µM] | concentration at 24 h [3, 7] [nM] | concentration at 24 h ([3]; rat plasma, read-out: Plasma) [nM] | EC50 (rat mGlu2 receptor; [8]) [µM] | antidepressant activity in the Forced Swim Test (Male Wistar rats) | phenotype in R6/2 mice (R6/2 mice) | GDNF levels [4] | protection of motor neurons against excitotoxic death (SMI-32+ motor neurons) | neurological disability (SOD1G93A mice) | locomotor activity (reserpine-treated rat; intracerebroventricular 1, 5, 10, 20 nmol/2 μl, reserpine 5 mg/kg ip) | reversal of reserpine-induced akinesia (reserpine-treated rat; systemic 0.1, 1, 10 mg/kg ip)
0.11 | 66 | 95 | O=C(O)c1cc(F)cc(-c2cccc(-c3nsc(-c4ccoc4)n3)c2)c1 [Example 43, 5-Fluoro-3′-(5-(furan-3-yl)-1,2,4-thiadiazol-3-yl)biphenyl-3-carboxylic Acid] | 0.17 | 3.43 | 210 ± 40 | 4690 ± 780 | – | – | – | – | – | – | – | –
> 30 | – | – | O=C(O)c1cccc(-c2cccc(-c3cc(-c4ccccc4)on3)c2)c1 [Example 49, 3′-(5-Phenylisoxazol-3-yl)-[1,1′-biphenyl]-3-carboxylic Acid] | > 10 | > 10 | 500 ± 50 | 19200 ± 2100 | – | – | – | – | – | – | – | –
– | – | – | O=C(O)c1cc(-c2cccc(-c3nc(-c4ccc(C(F)(F)F)nc4)cc(C(F)(F)F)n3)c2)ccc1F [Example 73, 4-Fluoro-3′-(4-(trifluoromethyl)-6-(6-(trifluoromethyl)pyridin-3-yl)pyrimidin-2-yl)biphenyl-3-carboxylic Acid] | 0.82 | 1.18 | 140 ± 90 | 9010 ± 2230 | 0.17 | – | – | – | – | – | – | –
– | – | – | O=C(O)c1cc(-c2cccc(-c3nc(-c4ccoc4)cc(C(F)(F)F)n3)c2)ccc1F [Example 94, 4-Fluoro-3′-(4-(furan-3-yl)-6-(trifluoromethyl)pyrimidin-2-yl)biphenyl-3-carboxylic Acid] | – | 0.28 | 490 ± 60 | 15900 ± 950 | 0.14 | – | – | – | – | – | – | –
– | – | – | N#Cc1cc(C2=Nc3ccc(Br)cc3NC(=O)C2)ccn1 [Example 182, 4-(8-Bromo-2-oxo-2,3-dihydro-1H-benzo[b][1,4]diazepin-4-yl)picolinonitrile] | 0.04 | 0.04 | 280 ± 100 | 160 ± 30 | 0.04 | decreasing immobility and increasing swimming | – | – | – | – | – | –
– | – | – | O=C1CC(c2ccnc(Br)c2)=Nc2ccc(C(F)(F)F)cc2N1 [Example 191, 4-(2-Bromopyridin-4-yl)-8-(trifluoromethyl)-1,3-dihydro-2H-benzo[b][1,4]diazepin-2-one] | 0.25 | 0.18 | 1430 ± 460 | 280 ± 60 | 0.08 | decreasing immobility and increasing swimming | – | – | – | – | – | –
– | – | – | N[C@@]1(C(=O)O)CO[C@H]2[C@H](C(=O)O)[C@H]21 [LY379268] | – | – | – | – | – | – | dramatically improves the phenotype | enhanced GDNF levels | protected | beneficial effect on neurological disability | dose-dependent increase in locomotor activity | did not reverse reserpine-induced akinesia

Source: patent US9969726B2, “Metabotropic glutamate receptor negative allosteric modulators (NAMS) and uses thereof” (Sanford-Burnham Medical Research Institute, priority 2014, dated 2018)
